ChEMBL document CHEMBL5252509, “In depth analysis of kinase cross screening data to identify chemical starting points for inhibition of the Nek family of kinases” (Medchemcomm, 2018)

Legend:
[1] = molecular target: T1, Serine/threonine-protein kinase Nek3 (Homo sapiens) (UniProt P51956); experiment: Inhibition of NEK3 (unknown origin) at 10 uM relative to control
T1 sequence (whole entry): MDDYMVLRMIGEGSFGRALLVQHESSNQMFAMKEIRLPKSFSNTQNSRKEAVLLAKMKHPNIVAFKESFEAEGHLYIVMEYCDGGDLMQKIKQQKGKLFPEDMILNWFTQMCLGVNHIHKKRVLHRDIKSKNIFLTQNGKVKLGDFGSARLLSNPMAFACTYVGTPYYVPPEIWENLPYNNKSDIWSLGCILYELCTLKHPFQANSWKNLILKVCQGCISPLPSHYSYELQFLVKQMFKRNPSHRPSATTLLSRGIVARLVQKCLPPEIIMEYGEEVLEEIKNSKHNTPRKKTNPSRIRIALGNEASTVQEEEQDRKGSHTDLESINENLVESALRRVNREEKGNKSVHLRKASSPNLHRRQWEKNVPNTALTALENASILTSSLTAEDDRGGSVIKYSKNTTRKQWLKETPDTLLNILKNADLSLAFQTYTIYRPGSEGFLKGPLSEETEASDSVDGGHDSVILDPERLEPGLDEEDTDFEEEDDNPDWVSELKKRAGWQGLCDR

[2] = molecular target: Serine/threonine-protein kinase Nek6 (Homo sapiens) (UniProt Q9HC98); experiment: Inhibition of NEK6 (unknown origin) at 10 uM relative to control
[3] = molecular target: T2, Serine/threonine-protein kinase Nek1 (Homo sapiens) (UniProt Q96PY6); experiment: Inhibition of NEK1 (unknown origin) at 10 uM relative to control
T2 sequence (whole entry): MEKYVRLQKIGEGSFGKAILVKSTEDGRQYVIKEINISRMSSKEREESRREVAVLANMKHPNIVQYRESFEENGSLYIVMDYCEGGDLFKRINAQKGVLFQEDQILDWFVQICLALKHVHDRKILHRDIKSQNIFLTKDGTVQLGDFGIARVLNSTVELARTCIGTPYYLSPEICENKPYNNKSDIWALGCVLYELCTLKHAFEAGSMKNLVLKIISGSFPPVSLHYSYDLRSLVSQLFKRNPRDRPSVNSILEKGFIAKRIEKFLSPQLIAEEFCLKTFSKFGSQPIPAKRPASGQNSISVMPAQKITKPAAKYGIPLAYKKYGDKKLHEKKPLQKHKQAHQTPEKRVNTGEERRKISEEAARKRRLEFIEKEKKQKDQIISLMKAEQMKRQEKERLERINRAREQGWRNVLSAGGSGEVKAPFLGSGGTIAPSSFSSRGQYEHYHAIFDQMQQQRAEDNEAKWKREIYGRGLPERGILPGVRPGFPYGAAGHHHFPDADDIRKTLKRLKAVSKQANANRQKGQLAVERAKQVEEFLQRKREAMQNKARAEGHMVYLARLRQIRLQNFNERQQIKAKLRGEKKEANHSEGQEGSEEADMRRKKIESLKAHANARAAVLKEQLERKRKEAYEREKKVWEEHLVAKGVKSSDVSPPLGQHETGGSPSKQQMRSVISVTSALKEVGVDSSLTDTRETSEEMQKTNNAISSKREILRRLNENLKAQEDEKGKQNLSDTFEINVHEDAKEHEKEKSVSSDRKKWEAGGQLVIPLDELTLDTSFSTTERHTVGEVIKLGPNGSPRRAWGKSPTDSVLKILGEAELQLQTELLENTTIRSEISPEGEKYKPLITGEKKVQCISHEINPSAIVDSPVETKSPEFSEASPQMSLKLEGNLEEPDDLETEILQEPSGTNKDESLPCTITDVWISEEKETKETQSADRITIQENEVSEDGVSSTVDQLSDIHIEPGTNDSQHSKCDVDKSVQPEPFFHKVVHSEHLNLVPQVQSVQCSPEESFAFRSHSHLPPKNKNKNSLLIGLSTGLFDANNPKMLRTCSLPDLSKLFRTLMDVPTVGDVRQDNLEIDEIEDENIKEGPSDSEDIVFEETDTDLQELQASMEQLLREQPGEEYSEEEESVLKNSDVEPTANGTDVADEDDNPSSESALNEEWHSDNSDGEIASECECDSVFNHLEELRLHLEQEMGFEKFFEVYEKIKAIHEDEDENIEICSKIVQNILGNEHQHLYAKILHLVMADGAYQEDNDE

[4] = molecular target: T3, Serine/threonine-protein kinase Nek9 (Homo sapiens) (UniProt Q8TD19); experiment: Inhibition of NEK9 (unknown origin) at 10 uM relative to control
T3 sequence (whole entry): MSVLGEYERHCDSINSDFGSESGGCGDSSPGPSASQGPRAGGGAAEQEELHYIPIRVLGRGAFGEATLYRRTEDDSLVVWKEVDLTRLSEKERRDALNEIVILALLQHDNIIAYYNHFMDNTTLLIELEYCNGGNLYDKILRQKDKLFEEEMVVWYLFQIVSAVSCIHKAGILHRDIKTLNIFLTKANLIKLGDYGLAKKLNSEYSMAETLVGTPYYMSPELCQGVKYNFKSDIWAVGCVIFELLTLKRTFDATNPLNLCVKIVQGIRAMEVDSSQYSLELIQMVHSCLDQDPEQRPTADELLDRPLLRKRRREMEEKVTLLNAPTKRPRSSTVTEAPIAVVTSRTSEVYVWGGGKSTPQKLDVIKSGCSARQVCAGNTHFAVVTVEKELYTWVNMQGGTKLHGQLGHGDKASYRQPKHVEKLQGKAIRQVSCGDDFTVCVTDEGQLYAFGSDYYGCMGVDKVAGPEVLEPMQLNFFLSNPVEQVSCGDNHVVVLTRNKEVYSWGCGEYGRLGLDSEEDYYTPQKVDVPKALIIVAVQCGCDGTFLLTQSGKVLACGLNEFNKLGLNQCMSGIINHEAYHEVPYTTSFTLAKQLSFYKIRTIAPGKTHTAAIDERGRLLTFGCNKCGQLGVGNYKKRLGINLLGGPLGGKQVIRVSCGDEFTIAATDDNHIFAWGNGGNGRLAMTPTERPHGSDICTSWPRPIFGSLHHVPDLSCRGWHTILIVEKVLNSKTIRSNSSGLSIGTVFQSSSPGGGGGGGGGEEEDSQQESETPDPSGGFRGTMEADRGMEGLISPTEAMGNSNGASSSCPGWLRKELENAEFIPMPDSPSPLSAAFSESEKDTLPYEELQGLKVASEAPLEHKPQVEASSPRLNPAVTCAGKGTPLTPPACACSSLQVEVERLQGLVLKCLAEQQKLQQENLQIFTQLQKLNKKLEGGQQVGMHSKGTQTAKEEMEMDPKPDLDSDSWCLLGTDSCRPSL

Serine/threonine-protein kinase Nek6 (Homo sapiens), sequence (Q9HC98 whole entry): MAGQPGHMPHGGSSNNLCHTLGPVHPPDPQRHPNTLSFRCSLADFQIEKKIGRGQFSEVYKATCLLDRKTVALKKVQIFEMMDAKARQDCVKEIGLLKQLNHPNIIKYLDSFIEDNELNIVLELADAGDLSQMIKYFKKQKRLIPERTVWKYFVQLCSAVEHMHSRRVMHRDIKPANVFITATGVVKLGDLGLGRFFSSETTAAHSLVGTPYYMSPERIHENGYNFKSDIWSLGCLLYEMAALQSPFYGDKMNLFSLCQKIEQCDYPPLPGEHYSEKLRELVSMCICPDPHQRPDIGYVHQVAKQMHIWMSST

| SMILES | % control [1] | % control [2] | % control [3] | % control [4] |
| --- | --- | --- | --- | --- |
| CN(C)C/C=C/C(=O)Nc1cccc(C(=O)Nc2ccc(Nc3nccc(-c4c(-c5ccccc5)nn5ccccc45)n3)cc2)c1 | 99% | 100% | 100% | 100% |
| Cc1cc(NC(=O)c2cccc(NC(=O)/C=C/CN(C)C)c2)ccc1Nc1nccc(-c2cccnc2)n1 | 73% | 100% | 81% | 100% |
| CN(C)C/C=C/C(=O)Nc1ccc(C(=O)Nc2cccc(Nc3nccc(-c4cccnc4)n3)c2)cc1 | 17% | 2.8% | 63% | 22% |
| Fc1cc(-c2cc[nH]/c(=N/c3ccc(-n4cnc(N5CCOCC5)n4)cc3)n2)cc(N2CCOCC2)c1 | 0.8% | 76% | 57% | 63% |
| O=C1NC(=O)/C(=C/c2ccc3nccc(-c4ccncc4)c3c2)S1 | 77% | 81% | 47% | 95% |
| Cc1ccc(NC(=O)c2ccc(NC(=O)/C=C/CN(C)C)cc2)cc1Nc1nccc(-c2cccnc2)n1 | 99% | 44% | 100% | 100% |
| CN(C)C/C=C/C(=O)Nc1cccc(C(=O)Nc2ccc(Nc3nccc(/C(C#N)=C4\Nc5ccccc5S4)n3)cc2)c1 | 100% | 100% | 100% | 63% |
| CN(C)C/C=C/C(=O)Nc1cccc(C(=O)Nc2ccc(Nc3nccc(-c4cccnc4)n3)cc2)c1 | 6.8% | 17% | 77% | 48% |
